Laboratory results: patent US7312323B2, “Enzymes and polynucleotides encoding the same” (The Horticulture and Food Research Institute of New Zealand …, priority 2002, dated 2007)

Columns and labels:
[1] = target: Germacrene D synthase (Actinidia deliciosa, UniProt Q32W37); test: Kinetic studies with 3H-FDP, pentane overlay scintillation assay; assay type: biochemical; settings: for effect of added ions on activity: 50 mM KCl or NaCl; for inhibition at high concentrations of the chloride salts: >5 mM and 10 mM of the respective Mg2+ and Mn2+ chloride salts
Protocol: Optimisation of large-scale production of protein and protein kinetics: E. coli BL21-PlusTM-RIL cells harbouring pET-30a75565 were grown overnight at 37° C. in Lauria-Bertani media supplemented with 30 μg ml^-1 kanamycin and 34 μg ml chloramphenicol^-1. 5 mL aliquots of overnight culture were used to inoculate 4×300 mL of fresh 2× YT medium supplemented with 30 μg ml^-1 […] 34 μg ml^-1 chloramphenicol in 1 L baffled flasks. Cultures were grown at 37° C. with vigorous agitation to A600=0.8, then removed to 4° C. to equilibrate to 16° C. before induction with 0.3 mM IPTG. Induced cultures were then incubated at 16° C. and 220 rpm for a further 72 hours. Cells were pelleted by centrifugation (2500×g; 10 min) and stored overnight at -20° C. The following day cell pellets were resuspended in 20 mL His6 binding buffer and cells were disrupted by 2 passes through an EmulsiFlex®-C15 high-pressure homogeniser (Avestin) with a pressure setting between 15000-20000 psi. Cell debris was pelleted by centrifugation 2× at 10000×g for 15 min; 4° C. (Sorval SS34 rotor). […] Filtered extract was desalted and passed over a Nickel affinity column. Concentration of the recombinant synthase in the purified protein extracts was estimated from SDS-PAGE gels by comparing against a BenchMarkTM Protein Ladder (Invitrogen). Purified extracts were adjusted to a workable concentration with His6 elution buffer (without Imidazole) containing 10% glycerol and 1 mM DTT. The extract was then separated into 100 μl aliquots and stored at -80° C. until required. […] Kinetic Studies: […] Tritiated FDP was added variously depending on the experiment. One mL assays containing 100-150 ng of the recombinant synthase were overlaid with 0.6 mL pentane and incubated in 1.5 mL microfuge tubes for 2 hours at 30° C. and 150 rpm. All assays were performed in triplicate. Following incubation assays were immediately placed on ice and a 200 μL aliquot of the pentane layer removed for analysis. The aliquots were added to 1.5 mL microfuge tubes containing 0.7 mL Organic Counting Scintillant (OCS) (Amersham) and vortexed briefly. Scintillation analysis was performed using a Wallac 1409 Liquid Scintillation Counter (^3H efficiency≈70%). […] The effect on enzyme activity of metal co-factors with and without salts was also tested. Mg^2+ and Mn^2+ were added in the presence and absence of 50 mM KCL and 50 mM NaCl in all possible combinations. Controls included incubation without enzyme, with enzyme but without metal ion cofactors and with enzyme and cofactors in the presence of 10 mM EDTA. A further control comprising His6 purified pET-30a extract was also assayed to determine potential utilisation of FDP by co-purifying bacterial proteins. […] Kinetic constants were determined from the DPM data by nonlinear regression using the Origin50 graphics package.

[2] = system: house dust mites; settings: Chang et al. 2001; cited from earlier work
[3] = Thermal rearrangement, pentane extracts from purified protein injected at different port temperatures; assay type: physicochemical
Protocol: Dynamic headspace methods were also used to collect the headspace volatiles from the purified extracts on to 100 mg Chromosorb 105 adsorbent traps. The protein was placed into 50 mL Quickfit® test tubes, which were fitted with a headspace adaptor with an air inlet and outlet. Volatiles were collected onto the Chromosorb 105 adsorbent traps, which were fitted to the air outlet port of each adaptor. The volatiles were purged from the vessel onto the traps with clean air at 50 mL min^−1 for 18 hours. The traps were stored at −15° C. for up to one week, and then subjected to GC-FIDIMS analysis. Finally, pentane extracts were taken from the purified extracts. An aliquot (2.5 ml) of pentane was added to the purified extracts and was left to extract for 18 hours. The pentane was removed and then concentrated with a stream of N2 gas. This was then injected onto the GC-MS at 150° C.
More light can be shed on the possibility of rearrangement of the products using pentane extraction.
In an experiment to test for thermal rearrangement, injections of pentane extract from purified protein were made at temperatures of 125, 150 and 210° C.; or pentane extract from Actinidia flowers were made at temperatures of 100, 125, 150 and 210° C. […] Germacrene B modulated slightly in response to temperature shifts although no gamma-elemene was found as might be predicted. In addition the predicted precursor for delta elemene—germacrene C (Feger et al., Flavour and Fragrance Journal 15: 170-173 (2000)) was not detected at any time. Germacrene A was also not detected at any time. […] Elemol may arise from further rearrangements of delta-elemene or from other elemene sources or from hedycaryol (Chamblee et al., J. Essent. Oil Res. 9: 127-132 (1997)). No GC-MS traces in any experiments indicated evidence for germacrene-C or for hedycaryol.

[4] = Thermal rearrangement, pentane extracts from Actinidia flowers injected at different port temperatures; assay type: physicochemical
Protocol: Whole flowers of the same plants were also harvested at anthesis in 2000. 18.6 g and 21 g of flowers from a mixture of developmental stages were placed in 2× Quickfit® Erlenmeyer flasks as above. Volatiles were collected onto a Chromosorb adsorbent trap in duplicate, after the system had been equilibrated for 30 min at room temperature (ca. 23° C.), by purging onto the trap with clean air at 25 mL min^−1 for 60 minutes. The trap was stored at −15° C. for one week and then analysed by GC-FD/MS. The same petals (1.99 g) were then extracted with pentane-ether (2 ml) and stored at −20° C. until analysed. The pentane (GPR, BDH) had been purified by distillation and by passing through a column of activated alumina. Pentane extracts were reduced by rotary evaporation and were dried by passing through a small column of anhydrous MgSO4 before the volume was reduced to ca. 50 μL under a gentle stream of nitrogen. The extract was analysed by GC-FID/MS.
GC-MS Analysis of dynamic headspace samples and pentane extracts: Volatile compounds were thermally desorbed from the headspace traps at 150° C. and were cryo-focussed at the beginning of the GC column (Young, 1981). The column outlet was split between the GC (Hewlett Packard 5890) FID detector (for quantitation) and VG-70SE (VG-Micromass, Manchester, U.K.) mass spectrometer (for component identification) with an electron impact ionisation of 70 eV. Separations were carried out in a 30 m×0.32 mm i.d., 0.5 μn DBWax capillary column (J & W Scientific, Folsom, USA), starting at 30° C. for 6 min, increasing by 3° C. min^−1 to 102° C., 5° C. min^−1 to 210° C. and held for 5 min. Injector temperature was 210° C. The carrier gas was He at a flow rate of ˜30 cm s^−1, and the FID and mass spectrometer transfer line were at 210° C. Quantification of compounds was carried out using an average detector response based on methyl butanoate, ethyl butanoate, hexanol and methyl benzoate. Components were identified by comparison with spectra in the mass spectral database (NIST 1998, Wiley 7 and an in-house database), retention indices (in-house database) and in some cases direct GC-MS comparison with authentic standards. Separations for the earlier 2000 samples were carried out in the same manner as above except the programme started at 30° C. for 6 min, increasing by 3° C. min^−1 to 102° C., 5° C. min^−1 to 190° C. and held for 5 min. Analysis of the pentane extract used a programme of 2 min at 40° C., 5° C. min^−1 to 200° C., 15° C. m^−1 to 240° C. and held for 20 min. For genotype 32-10-07a: the GC-MS was programmed to start at 30° C. for 2 min, increasing by 3° C. min^−1 to 50° C., 5° C. min^−1 to 130° C., 10° C. min^−1 to 240° C. and held for 2 min. Injector temperature was 240° C.
In an experiment to test for thermal rearrangement, injections of pentane extract from purified protein were made at temperatures of 125, 150 and 210° C.; or pentane extract from Actinidia flowers were made at temperatures of 100, 125, 150 and 210° C.

[5] = system: other sesquiterpene synthases; settings: read-out: Km in the literature; cited from earlier work
[6] = system: multifunctional germacrene D synthase (EST75565); test: Sesquiterpene products of purified recombinant protein + FDP, headspace trapping GC-MS; assay type: biochemical, Actinidia deliciosa
Protocol: Characterization of multifunctional germacrene D synthase from bacterial extracts and purified recombinant protein: E. coli BL21-Plus™-RIL cells harbouring pET-30a75565 were grown overnight at 37° C. in Lauria-Bertani media supplemented with 30 μg ml^−1 kanamycin and 34 μg ml chloramphenicol^−1. 5 mL aliquots of overnight culture were used to inoculate 4×300 mL of fresh 2× YT medium supplemented with 30 μg ml^−1 kanamycin and 34 μg ml^−1 chloramphenicol in 1 L baffled flasks. Cultures were grown at 37° C. with vigorous agitation to A600=0.8, then removed to 4° C. to equilibrate to 16° C. before induction with 0.3 mM IPTG. Following induction, cultures were immediately transferred to a 16° C. incubator and allowed to grow for a further 24 hours with continuous agitation and then harvested by centrifugation (2000×g for 10 min). […]
The headspace in the testubes was collected immediately after the addition of FDP (or GDP) and hexadecane (internal standard) using solid phase micro extraction (SPME). […] The background was analysed for contamination using GC-FID (HP5890) prior to use. […]
The volatiles were desorbed from the fibres in the GC injection port for 10 minutes at 220° C. for the Carbowax/DVB fibres. […] Semi-quantitative data was obtained by measuring sample peak area relative to hexadecane internal standard. […]

[7] = system: multifunctional germacrene D synthase; test: Headspace volatiles above E. coli BL21 cultures harbouring pET30a75565, PDMS/DVB SPME; assay type: cell-based, Actinidia deliciosa; settings: bacterial cultures
Protocol: Expression and characterization of multifunctional germacrene D synthase from bacterial cultures: E. coli BL21-Plus™-RIL cells harbouring pET30a75565, or empty pET30a vector as a control, were grown overnight at 37° C. in Luria-Bertani media supplemented with 30 μg/mL kanamycin and 50 μg/mL chloramphenicol. […] of overnight culture was used to inoculate 50 mL of fresh 2× YT medium supplemented with 30 μg/mL kanamycin and 50 μg/mL chloramphenicol. […] The culture was immediately transferred to an incubator set at 16° C., 30° C. or 37° C. depending on the experiment The headspace in the vessels above the bacterial cultures was collected immediately after the addition of FDP (or GDP) and hexadecane (the internal standard) using solid phase micro extraction (SPME). […] The background was analysed for contamination using GC-FID (HP5890) prior to use. The headspace volatiles were collected for ˜20 hours at 30° C. with continuous agitation (110 rpm). Prior to analysis using a GC-FID/MS, the fibres were stored at ambient temperature in septum sealed glass vials. The PDMS/DVB fibres were desorbed in the injector at 260° C.

[8] = injection port temperature 125 °C
[9] = injection port temperature 150 °C
[10] = injection port temperature 210 °C

In the case of `CC(C)=CCC/C(C)=C/CC/C(C)=C/CO[P@@](=O)(O)OP(=O)(O)O` (stereo in doubt) [FDP, farnesyl diphosphate], the Km ([1]; saturating Mg2+, pH 7.5, 30 °C) is reported as 1 to 2 µM.

For `CC1=C[C@@H]2[C@@H](CC1)[C@](C)(O)CC[C@H]2C(C)C` [Alpha-cadinol], the miticidal activity [2] is listed as “potent miticide”.

In the case of `C=C[C@]1(C)CC[C@@H](C(C)(C)O)C[C@H]1C(=C)C` [Elemol], the “Peak Area” value [3, 8] is reported as “ca. 9 × 10^4^”, the “Peak Area” value [3, 9] is reported as “ca. 1.4 × 10^5^” and the “Peak Area” value [3, 10] is reported as 5.75 × 10^6. For the same molecule, the “Peak Area” value [4, 9] was “ca. 8.4 × 10^6” and the “Peak Area” value [4, 10] was 3.78 × 10^7.

In the case of `CC(C)=CCC/C(C)=C/CC/C(C)=C/COP(=O)(O)OP(=O)(O)O` [FDP, farnesyl diphosphate], the “saturating concentration of FDP” value [1] is given as ~7.5 µM, the inhibition by substrate ([1]; 1 mM substrate concentration) is given as ~50% and the Km [5] is given as 0.4 to 4.5 µM.

In the case of `CC(C)=CCC/C(C)=C/COP(=O)(O)OP(=O)(O)O` [GDP, geranyl diphosphate], the “products on addition of GDP instead of FDP” value [6] is reported as “did not produce any germacrene D” and the “products on addition of GDP instead of FDP” value [7] is reported as “did not result in the production of any monoterpenes”.

With `CC(C)=C1C/C=C(\C)CC/C=C(\C)CC1` [Germacrene B] the “Peak Area” value [3, 8] was 7.57 × 10^5, the “Peak Area” value [3, 9] was 8.58 × 10^5 and the “Peak Area” value [3, 10] was 5.87 × 10^5. The “Peak Area” value ([4]; injection port temperature 100 °C) was 5.0 × 10^6, the “Peak Area” value [4, 8] was 7.40 × 10^6 and the “Peak Area” value [4, 9] was 1.0 × 10^7. The “Peak Area” value [4, 10] was 3.92 × 10^6.

In the case of `[K+]` [K^+], the “effect of added ions on activity” value [1] is reported as “little or no effect”.

For `[Mg+2]` [Mg^2+], the “inhibition at high concentrations of the chloride salts” value [1] is listed as “No significant inhibition” and the Km [5] is listed as 70 to 150 µM.

In the case of `[Mn+2]` [Mn^2+], the “Vrel with Mn2+ as cofactor relative to Mg2+” value [1] is reported as ~27%, the “effect of Mn in the buffer when Mg2+ present” value [1] is reported as “inhibition of activity” and the “inhibition at high concentrations of the chloride salts” value [1] is reported as “No significant inhibition”. The Km [5] was 7 to 30 µM.

In the case of `[Na+]` [Na^+], the “effect of added ions on activity” value [1] is reported as “little or no effect”.

In the case of `C=C[C@@]1(C)CCC(C(C)C)=C[C@@H]1C(=C)C` [δ-Elemene], the “Peak Area” value [3, 10] is reported as 9.05 × 10^5, the “Peak Area” value [4, 9] is reported as “ca. 5.7 × 10^5” and the “Peak Area” value [4, 10] is reported as 4.14 × 10^6.

B1: Germacrene D synthase: recombinant His6-tagged sesquiterpene synthase from Actinidia deliciosa petals, SEQ ID NO:2 (protein, listed as Actinidia deliciosa)
chain: MQLPCAQALPIPTVTTTTSIEPPHVTRRSANYHPSIWGDHFLAYSSDAMEEEVINMEQQQRLHHLKQKVRKMLEAAAEQSSQMLNLVDKIQRLGVSYHFETEIETALRHIYKTCDYHFDDLHTAALSFRLLRQQGYPVSCDMFDKFKNSKGEFQESIISDVQGMLSLYEATCLRIHGEDILDEALAFTITQLRSALPNLSTPFKEQIIHALNQPIHKGLTRLNARSHILFFEQNDCHSKDLLNFAKLDFNLLQKLHQRELCEITRWWKDLNFAKTLPFARDRMVECYFWILGVYFEPQYLLARRMLTKVIAMISIIDDIYDVYGTLEELVLFTDAIERWEISALDQLPEYMKLCYQALLDVYSMIDEEMAKQGRSYCVDYAKSSMKILVRAYFEEAKWFHQGYVPTMEEYMQVALVTAGYKMLATSSFVGMGDLATKEAFDWVSNDPLIVQAASVIGRLKDDIVGHKFEQKRGHVASAVECYSKQHGTTEEEAIIELDKQVTHSWKDINAECLCPIKVPMPLLARVLNLARVLYVIYQDEDGYTHPGTKVENFVTSVLIDSMPIN
modifications: His6 tag
With B1 the “decrease in enzyme activity” value ([1]; 0.5 pH units lower than 7.5) was 47%, the “decrease in enzyme activity” value ([1]; 1 pH unit higher than 7.5) was 59% and the “activity relative to optimal temperature activity” value ([1]; 16 °C) was ~56%. For the same molecule, the “activity at high temperature” value ([1]; 50 °C) was “Little or no activity”, the “Vrel in the absence of DTT” value ([1]; optimal conditions, without DTT) was ~53% and the “temperature of maximum synthase activity” value ([1]; range 16-50 °C, 10 mM MgCl2, 10 μM FDP) was 30 °C. For the same molecule, the pH optimum ([1]; tri-buffer system pH 5.7-9.5, 10 mM MgCl2, 10 μM FDP) was 7.5.
